According to patent publication US10961232B2, “Substituted pyrazines as ATR kinase inhibitors” (Vertex Pharmaceuticals Incorporated, priority 2008, dated 2021):

What follows are compounds tested against full-length ATR (Homo sapiens (Human), UniProt Q13535) (assay: ATR inhibition assay (radioactive-phosphate incorporation)). Conditions: not given.
Format: biochemical
Description: Example 76A: ATR Inhibition Assay
Compounds were screened for their ability to inhibit ATR kinase using a radioactive-phosphate incorporation assay. Assays were carried out in a mixture of 50 mM Tris/HCl (pH 7.5), 10 mM MgCl2 and 1 mM DTT.
Assays were carried out at 25° C. in the presence of 5 nM full-length ATR. An assay stock buffer solution was prepared containing all of the reagents listed above, with the exception of ATP and the test compound of interest. […] The plate was pre-incubated for 10 minutes at 25° C. and the reaction initiated by addition of 15 μL [γ-33P]ATP (final concentration 10 μM).
The reaction was stopped after […] by the addition of 30 μL, 0.1M phosphoric acid containing 2 mM ATP. A multiscreen phosphocellulose filter 96-well plate (Millipore, Cat no. MAPHN0B50) was pretreated with 100 μL, 0.2M phosphoric acid prior to the addition of 45 μL of the stopped assay mixture. […] After drying, 100 μL Optiphase ‘SuperMix’ liquid scintillation cocktail (Perkin Elmer) was added to the well prior to scintillation counting (1450 Microbeta Liquid Scintillation Counter, Wallac).
After removing mean background values for all of the data points, Ki(app) data were calculated from non-linear regression analysis of the initial rate data using the Prism software package (GraphPad Prism version 3.0cx for Macintosh, GraphPad Software, San Diego, Calif., USA).

full-length ATR, sequence (Q13535 whole entry): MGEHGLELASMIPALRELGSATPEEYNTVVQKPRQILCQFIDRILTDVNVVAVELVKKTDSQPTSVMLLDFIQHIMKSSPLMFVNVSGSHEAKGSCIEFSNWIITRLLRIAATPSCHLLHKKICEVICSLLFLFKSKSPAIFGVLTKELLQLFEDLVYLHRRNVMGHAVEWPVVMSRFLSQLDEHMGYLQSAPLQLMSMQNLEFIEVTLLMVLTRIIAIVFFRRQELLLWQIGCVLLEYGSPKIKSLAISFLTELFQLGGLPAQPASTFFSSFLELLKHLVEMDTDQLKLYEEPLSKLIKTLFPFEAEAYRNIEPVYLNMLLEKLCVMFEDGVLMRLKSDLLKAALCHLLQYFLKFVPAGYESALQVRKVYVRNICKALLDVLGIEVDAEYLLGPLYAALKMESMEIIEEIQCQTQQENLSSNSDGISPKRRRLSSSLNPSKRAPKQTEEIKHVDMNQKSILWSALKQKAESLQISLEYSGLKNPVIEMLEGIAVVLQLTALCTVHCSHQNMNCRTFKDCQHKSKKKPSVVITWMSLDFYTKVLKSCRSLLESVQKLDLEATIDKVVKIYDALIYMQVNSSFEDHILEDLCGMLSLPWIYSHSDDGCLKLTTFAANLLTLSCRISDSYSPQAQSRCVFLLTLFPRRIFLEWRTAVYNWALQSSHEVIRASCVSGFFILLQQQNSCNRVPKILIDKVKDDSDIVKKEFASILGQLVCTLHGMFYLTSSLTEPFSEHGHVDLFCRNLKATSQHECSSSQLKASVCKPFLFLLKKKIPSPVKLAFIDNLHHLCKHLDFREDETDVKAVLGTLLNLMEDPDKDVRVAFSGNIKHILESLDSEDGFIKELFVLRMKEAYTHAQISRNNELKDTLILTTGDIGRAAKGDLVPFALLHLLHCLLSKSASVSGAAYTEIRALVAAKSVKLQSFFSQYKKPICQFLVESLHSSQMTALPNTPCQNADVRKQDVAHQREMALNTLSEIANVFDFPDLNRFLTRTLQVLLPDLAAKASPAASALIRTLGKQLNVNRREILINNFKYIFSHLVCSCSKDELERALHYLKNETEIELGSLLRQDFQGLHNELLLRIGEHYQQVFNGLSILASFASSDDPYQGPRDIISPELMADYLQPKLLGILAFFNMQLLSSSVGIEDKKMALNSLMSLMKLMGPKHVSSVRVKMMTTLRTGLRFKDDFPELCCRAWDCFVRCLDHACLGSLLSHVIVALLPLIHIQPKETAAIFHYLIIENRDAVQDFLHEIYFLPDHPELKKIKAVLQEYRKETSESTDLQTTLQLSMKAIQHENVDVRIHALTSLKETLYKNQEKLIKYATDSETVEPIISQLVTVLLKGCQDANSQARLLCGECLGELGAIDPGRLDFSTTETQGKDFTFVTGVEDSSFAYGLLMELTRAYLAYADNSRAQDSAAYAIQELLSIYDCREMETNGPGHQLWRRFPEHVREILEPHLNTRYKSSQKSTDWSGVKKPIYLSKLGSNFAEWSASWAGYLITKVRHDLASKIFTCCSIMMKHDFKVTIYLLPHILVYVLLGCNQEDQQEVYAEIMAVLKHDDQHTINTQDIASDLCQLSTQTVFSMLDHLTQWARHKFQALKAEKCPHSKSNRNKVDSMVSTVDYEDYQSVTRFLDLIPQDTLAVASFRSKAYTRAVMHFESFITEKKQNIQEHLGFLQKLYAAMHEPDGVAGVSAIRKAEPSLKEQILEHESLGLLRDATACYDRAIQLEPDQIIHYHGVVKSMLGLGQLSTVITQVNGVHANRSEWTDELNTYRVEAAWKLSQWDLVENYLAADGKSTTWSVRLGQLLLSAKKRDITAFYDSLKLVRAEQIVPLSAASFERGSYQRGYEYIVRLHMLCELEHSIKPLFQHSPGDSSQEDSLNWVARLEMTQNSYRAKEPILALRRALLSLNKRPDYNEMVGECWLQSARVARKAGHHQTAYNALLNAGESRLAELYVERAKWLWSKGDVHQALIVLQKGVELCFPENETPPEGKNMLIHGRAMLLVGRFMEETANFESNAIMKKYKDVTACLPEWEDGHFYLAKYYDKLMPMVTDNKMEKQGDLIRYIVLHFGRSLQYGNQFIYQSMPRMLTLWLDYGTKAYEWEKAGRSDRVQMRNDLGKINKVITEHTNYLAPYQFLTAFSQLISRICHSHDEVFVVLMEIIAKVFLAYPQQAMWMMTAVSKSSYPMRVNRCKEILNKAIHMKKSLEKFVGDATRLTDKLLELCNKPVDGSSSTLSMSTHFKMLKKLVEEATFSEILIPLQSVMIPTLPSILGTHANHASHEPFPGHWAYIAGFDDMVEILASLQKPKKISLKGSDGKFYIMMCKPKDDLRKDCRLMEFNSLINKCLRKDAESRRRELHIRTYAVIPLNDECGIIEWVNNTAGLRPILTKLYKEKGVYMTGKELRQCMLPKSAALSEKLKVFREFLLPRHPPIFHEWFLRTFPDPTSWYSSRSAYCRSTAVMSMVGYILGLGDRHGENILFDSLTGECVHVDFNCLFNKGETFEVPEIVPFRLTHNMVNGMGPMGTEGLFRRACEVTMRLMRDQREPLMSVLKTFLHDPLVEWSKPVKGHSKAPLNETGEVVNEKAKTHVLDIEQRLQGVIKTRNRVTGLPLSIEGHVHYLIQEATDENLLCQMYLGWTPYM

| Ki [nM] | Compound |
| --- | --- |
| 10 to 100 | CC(C)(C)CCN1CCCN(C(=O)c2ccc(-c3cnc(N)c(-c4nnc(-c5ccccc5)o4)n3)cc2)CC1 [IA-27] |
| 10 to 100 | CN(C)C1CCN(C(=O)c2ccc(-c3cnc(N)c(C(=O)Nc4ccccc4)n3)cc2)C1 (stereo not shown) [Compound I-76, 3-amino-6-(4-(3-(dimethylamino)pyrrolidine-1-carbonyl)phenyl)-N-phenylpyrazine-2-carboxamide] |
| ≤ 10 | CC(NC(=O)OC(C)(C)C)c1cccc(-c2nnc(-c3nc(-c4ccc(S(=O)(=O)C(C)C)cc4)cnc3N)o2)c1 (stereo not shown) [IA-154, tert-butyl N-[1-[3-[5-[3-amino-6-(4-isopropylsulfonylphenyl)pyrazin-2-yl]-1,3,4-oxadiazol-2-yl]phenyl]ethyl]carbamate] |
| 10 to 100 | Nc1ncc(-c2ccc(C(=O)N3CCCNCC3)cc2)nc1-c1noc(-c2ccccc2)n1 [IA-2] |
| 10 to 100 | Nc1ncc(-c2ccc(C(=O)N3CCCNCC3)c3ccccc23)nc1-c1nnc(-c2ccccc2)o1 [IA-48] |
| 100 to 5000 | Nc1ncc(-c2cccc(C(=O)NC3CCC(O)CC3)c2)nc1C(=O)Nc1ccccc1 (stereo not shown) [Compound I-57, 3-amino-6-(3-(4-hydroxycyclohexylcarbamoyl)phenyl)-N-phenylpyrazine-2-carboxamide] |
| 100 to 5000 | CN(C)C1CCN(C(=O)c2cccc(-c3cnc(N)c(C(=O)Nc4ccccc4)n3)c2)C1 (stereo not shown) [Compound I-55, 3-amino-6-(3-(3-(dimethylamino)pyrrolidine-1-carbonyl)phenyl)-N-phenylpyrazine-2-carboxamide] |

Same assay, conditions: ATR Inhibition Ki values; 5 nM full-length ATR, 10 μM ATP

| Compound | Ki [nM] |
| --- | --- |
| CS(=O)(=O)c1ccc(-c2cnc(N)c(-c3nnc(-c4ccccc4)o3)n2)cc1 [IA-89, 5-(4-methylsulfonylphenyl)-3-(5-phenyl-1,3,4-oxadiazol-2-yl)pyrazin-2-amine] | ≤ 10 |
| C[S+]([O-])c1ccc(-c2cnc(N)c(-c3nnc(-c4ccccc4)o3)n2)cc1 (stereo not shown) [IA-274, 5-(4-methylsulfinylphenyl)-3-(5-phenyl-1,3,4-oxadiazol-2-yl)pyrazin-2-amine] | ≤ 10 |

More lines, now with the values ahead:

| Ki [nM] | Compound |
| --- | --- |
| 10 to 100 | Cc1cccc(NC(=O)c2nc(-c3ccc(S(C)(=O)=O)cc3)cnc2N)n1 [VII-5] |
| ≤ 10 | CNCc1ccc(-c2nnc(-c3nc(-c4ccc(S(=O)(=O)C(C)CCOC)cc4)cnc3N)o2)c(F)c1 (stereo not shown) [IA-332, 3-[5-[2-fluoro-4-(methylaminomethyl)phenyl]-1,3,4-oxadiazol-2-yl]-5-[4-(3-methoxy-1-methyl-propyl)sulfonylphenyl]pyrazin-2-amine] |
| 10 to 100 | CCc1cccc(NC(=O)c2nc(-c3ccc(S(C)(=O)=O)cc3)cnc2N)n1 [VII-4] |
| ≤ 10 | CNCc1ccc(-c2nnc(-c3nc(-c4ccc(S(=O)(=O)C(C)C)c(OC(F)(F)F)c4)cnc3N)o2)cc1 [IA-290, 5-[4-isopropylsulfonyl-3-(trifluoromethoxy)phenyl]-3-[5-[4-(methylaminomethyl)phenyl]-1,3,4-oxadiazol-2-yl]pyrazin-2-amine] |
